{"source": "ChEMBL document CHEMBL1201862", "about": "“PubChem BioAssay data set” (2004)", "key": {"HEK293 [1]": {"system": "HEK293", "assay": "NOD1 signaling inhibitors, primary screen, cell-based, luminescence, uHTS (AID 1578)", "format": "functional", "settings": "Homo sapiens"}, "HEK293 [2]": {"system": "HEK293", "assay": "cells", "format": "functional, cell-based", "settings": "Homo sapiens"}, "HEK293 [3]": {"system": "HEK293", "assay": "cells", "format": "functional, cell-based", "settings": "Homo sapiens", "remark": "listed apart in the source"}, "HEK293 [4]": {"system": "HEK293", "assay": "NOD2 signaling inhibitors in MDP-stimulated cells, cell-based, uHTS, luminescence (AID 2001)", "format": "functional", "settings": "Homo sapiens"}, "Nonstructural protein 1": {"target": "Nonstructural protein 1 (Influenza A virus, UniProt Q194T2)", "sequence (Q194T2 whole entry)": "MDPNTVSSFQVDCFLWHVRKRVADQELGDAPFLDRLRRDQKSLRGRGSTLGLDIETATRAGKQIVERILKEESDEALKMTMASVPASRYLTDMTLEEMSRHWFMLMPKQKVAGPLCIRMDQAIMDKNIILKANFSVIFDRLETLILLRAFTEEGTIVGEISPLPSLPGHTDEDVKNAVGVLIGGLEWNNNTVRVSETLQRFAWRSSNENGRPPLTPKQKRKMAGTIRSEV", "format": "functional, Influenza A virus (A/California/07/2009(H1N1))"}, "[5]": {"assay": "inhibitors of intracellular T. cruzi replication, confirmation, NIH3T3 host cells, beta-gal luminescence (AID 2044);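 further: luminescent beta-galactosidase reporter signal from transgenic T. cruzi replicating inside host cells; inhibitors lower the luminescence signal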", "format": "functional, cell-based"}, "[6]": {"assay": "cytotoxicity toward NIH3T3 fibroblasts, dose response, counter-screen, cell-based, ATP luminescence, mouse fibroblasts (AID 2010);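 further: cells exposed to compound for about 90 hours before reading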", "format": "functional"}, "[7]": {"target": "T1, Heat shock factor protein 1 (Mus musculus, UniProt P38532)", "T1 sequence (P38532 whole entry)": "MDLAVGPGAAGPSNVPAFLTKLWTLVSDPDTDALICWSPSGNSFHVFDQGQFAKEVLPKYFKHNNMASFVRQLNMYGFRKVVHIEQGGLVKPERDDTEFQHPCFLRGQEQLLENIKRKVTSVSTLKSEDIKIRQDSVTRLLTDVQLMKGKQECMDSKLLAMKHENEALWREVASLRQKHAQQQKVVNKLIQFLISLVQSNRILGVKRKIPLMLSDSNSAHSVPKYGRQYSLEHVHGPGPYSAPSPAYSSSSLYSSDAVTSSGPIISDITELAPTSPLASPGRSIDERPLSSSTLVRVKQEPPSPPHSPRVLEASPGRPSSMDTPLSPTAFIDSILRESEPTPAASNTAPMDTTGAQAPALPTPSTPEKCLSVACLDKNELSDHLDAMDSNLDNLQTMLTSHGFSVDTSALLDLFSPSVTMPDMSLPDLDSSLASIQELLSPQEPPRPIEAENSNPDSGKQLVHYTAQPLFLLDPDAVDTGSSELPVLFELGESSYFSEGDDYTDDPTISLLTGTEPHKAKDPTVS", "assay": "HSF1 potentiators in luciferase reporter cells, confirmation, cell-based, NIH3T3, luminescence, dose retest (AID 435004);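 further: stress induced by proteasome inhibitor MG132 added 30 min after compound; actives raise luminescence as potentiators of the MG132 stress response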", "format": "functional"}, "[8]": {"target": "DNA dC->dU-editing enzyme APOBEC-3G (Homo sapiens, UniProt Q9HC16)", "sequence (Q9HC16 whole entry)": "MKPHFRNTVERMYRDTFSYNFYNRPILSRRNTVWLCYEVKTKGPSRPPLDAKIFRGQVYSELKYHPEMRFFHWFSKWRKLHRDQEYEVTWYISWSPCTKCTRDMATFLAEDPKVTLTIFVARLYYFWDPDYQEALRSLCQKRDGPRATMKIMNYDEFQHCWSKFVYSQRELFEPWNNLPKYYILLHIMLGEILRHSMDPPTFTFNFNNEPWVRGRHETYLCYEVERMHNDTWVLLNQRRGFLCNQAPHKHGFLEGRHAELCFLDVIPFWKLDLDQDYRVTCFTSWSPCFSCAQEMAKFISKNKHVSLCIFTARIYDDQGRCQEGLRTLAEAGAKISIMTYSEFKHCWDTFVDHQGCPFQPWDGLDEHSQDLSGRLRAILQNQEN", "assay": "APOBEC3G deaminase inhibitors, SAR follow-up, biochemical, fluorescence, single-stranded DNA substrate (AID 602136)", "format": "functional", "settings": "read-out: IC50_Mean"}, "[9]": {"target": "DNA dC->dU-editing enzyme APOBEC-3A (Homo sapiens, UniProt P31941)", "sequence (P31941 whole entry)": "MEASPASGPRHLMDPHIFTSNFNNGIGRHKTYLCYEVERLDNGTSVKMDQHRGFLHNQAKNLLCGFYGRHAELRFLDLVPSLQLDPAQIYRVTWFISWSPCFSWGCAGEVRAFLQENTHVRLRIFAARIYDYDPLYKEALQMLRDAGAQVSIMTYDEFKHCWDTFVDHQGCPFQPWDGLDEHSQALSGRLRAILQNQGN", "assay": "SAR analysis of small molecule inhibitors of APOBEC3A DNA Deaminase via a fluorescence-based single-stranded DNA deaminase assay.", "format": "functional", "settings": "read-out: IC50_Mean"}, "Trypsin": {"target": "Trypsin (Sus scrofa, UniProt P00761)", "sequence (P00761 whole entry)": "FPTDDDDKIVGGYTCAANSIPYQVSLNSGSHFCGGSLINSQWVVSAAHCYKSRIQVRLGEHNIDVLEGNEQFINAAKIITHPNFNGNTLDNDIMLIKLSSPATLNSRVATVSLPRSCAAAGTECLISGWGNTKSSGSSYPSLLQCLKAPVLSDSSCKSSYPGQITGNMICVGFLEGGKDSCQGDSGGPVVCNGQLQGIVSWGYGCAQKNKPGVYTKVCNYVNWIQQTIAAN", "assay": "porcine trypsin inhibitors, dose response, selectivity assay for Rce1 protease inhibitor project, biochemical, quenched peptide fluorescence, cherry-pick (AID 488789)"}, "CAAX prenyl protease 2 [10]": {"target": "T2, CAAX prenyl protease 2 (Saccharomyces cerevisiae S288c, UniProt Q03530)", "T2 sequence (Q03530 whole entry)": "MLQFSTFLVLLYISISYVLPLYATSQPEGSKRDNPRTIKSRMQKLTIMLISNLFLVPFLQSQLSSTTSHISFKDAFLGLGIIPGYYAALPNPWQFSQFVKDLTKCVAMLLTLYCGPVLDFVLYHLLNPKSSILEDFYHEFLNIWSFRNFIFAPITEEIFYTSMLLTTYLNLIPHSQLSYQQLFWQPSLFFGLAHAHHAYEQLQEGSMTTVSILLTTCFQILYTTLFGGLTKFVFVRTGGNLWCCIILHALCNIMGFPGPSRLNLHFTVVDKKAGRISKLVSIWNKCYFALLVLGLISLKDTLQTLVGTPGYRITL", "format": "biochemical"}, "CAAX prenyl protease 1": {"target": "CAAX prenyl protease 1 (Saccharomyces cerevisiae S288c, UniProt P47154)", "sequence (P47154 whole entry)": "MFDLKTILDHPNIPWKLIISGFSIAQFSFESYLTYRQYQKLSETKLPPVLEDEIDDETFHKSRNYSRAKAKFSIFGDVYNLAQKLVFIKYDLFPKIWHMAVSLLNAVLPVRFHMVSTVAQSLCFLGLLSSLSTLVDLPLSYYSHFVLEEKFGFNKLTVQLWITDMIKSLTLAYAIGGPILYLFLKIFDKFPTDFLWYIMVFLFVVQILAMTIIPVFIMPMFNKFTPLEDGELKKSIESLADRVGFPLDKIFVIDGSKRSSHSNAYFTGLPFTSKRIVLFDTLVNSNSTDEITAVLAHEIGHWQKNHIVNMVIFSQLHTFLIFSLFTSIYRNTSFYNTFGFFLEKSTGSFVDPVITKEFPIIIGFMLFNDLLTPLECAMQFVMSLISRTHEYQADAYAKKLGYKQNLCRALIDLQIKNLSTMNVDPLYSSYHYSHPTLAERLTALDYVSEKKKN", "assay": "Ste24 protease inhibitors, dose response, biochemical, S. cerevisiae, plate reader, cherry-pick (AID 488815)"}, "CAAX prenyl protease 2 [11]": {"target": "CAAX prenyl protease 2 (Homo sapiens, UniProt Q9Y256)", "sequence (Q9Y256 whole entry)": "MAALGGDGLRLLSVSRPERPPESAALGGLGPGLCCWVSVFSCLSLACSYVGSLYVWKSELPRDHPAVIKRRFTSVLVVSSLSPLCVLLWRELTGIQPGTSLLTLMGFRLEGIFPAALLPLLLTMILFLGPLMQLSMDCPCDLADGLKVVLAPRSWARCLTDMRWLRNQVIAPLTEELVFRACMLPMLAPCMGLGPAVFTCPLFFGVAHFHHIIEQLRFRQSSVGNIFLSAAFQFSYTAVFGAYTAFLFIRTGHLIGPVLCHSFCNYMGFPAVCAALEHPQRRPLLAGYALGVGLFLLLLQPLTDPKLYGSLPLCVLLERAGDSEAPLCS", "assay": "human Rce1 protease inhibitors, dose response, biochemical, yeast membranes, quenched-peptide fluorescence, cherry-pick (AID 588849)"}}, "note": "Active and inactive are the calls of the source."}
{"molecule": "CN1C=C/C(=C/c2ccc3ccccc3[n+]2C)c2ccccc21", "values": [{"measurement": "EC50", "setting": "HEK293 [1]", "result": "5.15 µM (active)"}, {"measurement": "IC50", "setting": "HEK293 [2]", "result": "8.56 µM (active)"}, {"measurement": "IC50", "setting": "HEK293 [3]", "result": "18 µM (active)"}, {"measurement": "IC50", "setting": "HEK293 [4]", "result": "7.8 µM (active)"}, {"measurement": "IC50", "setting": "Nonstructural protein 1", "result": "16.4 µM (active)"}]}
{"molecule": "Cc1cc(C(=O)N/N=C/c2ccc([N+](=O)[O-])s2)c2ccccc2n1", "values": [{"measurement": "EC50", "setting": "HEK293 [1]", "result": "7.6 µM (active)"}, {"measurement": "IC50", "setting": "HEK293 [2]", "result": "15.8 µM (active)"}, {"measurement": "IC50", "setting": "HEK293 [3]", "result": "> 20 µM (inactive)"}, {"measurement": "EC50", "setting": "[5]", "result": "0.623 µM (active)"}, {"measurement": "EC50", "setting": "[6]", "result": "> 30 µM (not active)"}, {"measurement": "EC50", "setting": "[7]", "result": "13 µM (active)"}]}
{"molecule": "O=C(CSc1nnc2scc(-c3ccccc3)n12)Nc1cccc(C(F)(F)F)c1", "values": [{"measurement": "IC50", "setting": "[8]", "result": "> 99 µM (inactive)"}, {"measurement": "IC50", "setting": "[9]", "result": "> 99 µM (inactive)"}]}
{"molecule": "COC(=O)c1sc2cnccc2c1N", "values": [{"measurement": "AC50", "setting": "Trypsin", "result": "9.63 µM (active)"}, {"measurement": "AC50", "setting": "CAAX prenyl protease 2 [10]", "result": "14 µM (active)"}, {"measurement": "AC50", "setting": "CAAX prenyl protease 1", "result": "4.39 µM (active)"}, {"measurement": "AC50", "setting": "CAAX prenyl protease 2 [11]", "result": "2.57 µM (active)"}]}
